# Biological target: KRas G12C (Homo sapiens, UniProt P01116, G12C)
# Assay: Cellular inhibition of KRas G12C measured by Phospho-ERK in NCI-H358 cells
# Assay type: cell-based
# Conditions: pERK(Thr202/Tyr204) normalized with GAPDH, NCI-H358 cells, 3 hours; read-out: IC50
# Description: Cells were plated in poly-D-Lysine coated 96-well plates at a concentration of 50,000 cells/well and allowed to attach for 8-12 hours. Diluted compounds were then added at a final concentration of 0.5% DMSO. After 3 hours, the medium was removed, 150 μL of 4% formaldehyde was added and the plates were incubated for 20 minutes. The plates were washed with PBS, and permeabilized using 150 μL of ice cold 100% methanol for 10 minutes. Non-specific antibody binding to the plates was blocked using 100 μL Licor Blocking Buffer (Li-Cor Biotechnology, Lincoln Nebr.) for 1 hour at room temperature. Positive control samples and samples lacking cells were parallel processed with test samples as standards.
# The amount Phospho-ERK was determined using an antibody specific for the phosphorylated form of ERK and compared to the amount of GAPDH. […] The plates were incubated for 2 hours at room temperature. The plates were washed with PBS+0.05% Tween 20.
# Secondary antibodies used to visualize primary antibodies were added as follows: Anti-rabbit-680 diluted 1:1000 and Anti-mouse-800 diluted 1:1000 in Licor Block+0.05% Tween 20 and incubated for 1 hour at room temperature. The plates were washed with PBS+0.05% Tween 20. A 100 μL aliquot of PBS was added to each well and the plates were read on a LICOR AERIUS plate reader.
# The pERK(Thr202/Tyr204) signal was normalized with the GAPDH signal and percent of DMSO control values were calculated. IC50 values were generated using a 4 parameter fit of the dose response curve. Key: “A”≥0.0001-≤1 μM; “B”>1 μM and ND=not determined.
# KRas G12C, sequence (P01116 1-188 isoform P01116-2 G12C): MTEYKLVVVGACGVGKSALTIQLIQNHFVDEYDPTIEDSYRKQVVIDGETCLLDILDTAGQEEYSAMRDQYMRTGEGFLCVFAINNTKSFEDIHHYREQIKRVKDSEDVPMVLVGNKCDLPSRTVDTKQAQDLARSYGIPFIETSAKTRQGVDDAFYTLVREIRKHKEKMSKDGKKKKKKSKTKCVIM
row,SMILES,IC50
1,"Cc1cccc2cccc(N3CCc4c(nc(OC[C@@H]5CCCN5C)nc4N4CCN(C(=O)C5=CC(=O)CC5)[C@@H](CC#N)C4)C3)c12 [Example 497, 2-((S)-4-(7-(8-methylnaphthalen-1-yl)-2-(((S)-1-methylpyrrolidin-2-yl)methoxy)-5,6,7,8-tetrahydropyrido[3,4-d]pyrimidin-4-yl)-1-(3-oxocyclopent-1-ene-1-carbonyl)piperazin-2-yl)acetonitrile]",0.1 to 1000 nM
2,"Cc1cccc2cccc(N3CCc4c(nc(OC[C@@H]5CC(F)(F)CN5C)nc4N4CCN(C(=O)/C=C/CF)[C@@H](CC#N)C4)C3)c12 [Example 601, 2-[(2S)-4-[2-[[(2S)-4,4-difluoro-1-methyl-pyrrolidin-2-yl]methoxy]-7-(8-methyl-1-naphthyl)-6,8-dihydro-5H-pyrido[3,4-d]pyrimidin-4-yl]-1-[(E)-4-fluorobut-2-enoyl]piperazin-2-yl]acetonitrile]",0.1 to 1000 nM
3,"Cc1cccc2cccc(N3CCc4c(nc(OC[C@@H]5CCCN5C)nc4N4CCN(C(=O)/C=C/CN5CCOCC5)[C@@H](CC#N)C4)C3)c12 [Example 460, 2-[(2S)-4-[7-(8-methyl-1-naphthyl)-2-[[(2S)-1-methylpyrrolidin-2-yl]methoxy]-6,8-dihydro-5H-pyrido[3,4-d]pyrimidin-4-yl]-1-[(E)-4-morpholinobut-2-enoyl]piperazin-2-yl]acetonitrile]",0.1 to 1000 nM
4,"C=CC(=O)N1CCN(c2nc(OC[C@@H]3CCCN3C)nc3c2CCN(c2cccc4cccnc24)C3)CC1CC#N (stereo partly drawn) [Example 247, 2-(1-acryloyl-4-(2-(((S)-1-methylpyrrolidin-2-yl)methoxy)-7-(quinolin-8-yl)-5,6,7,8-tetrahydropyrido[3,4-d]pyrimidin-4-yl)piperazin-2-yl)acetonitrile]",> 1000 nM
5,"C=CC(=O)N1CCN(c2nc(OC[C@@H]3C[C@@H](O)CN3C)nc3c2CCN(c2cccc4ccccc24)C3)C[C@@H]1CC#N [Example 315, 2-[(2S)-4-[2-[[(2S,4R)-4-hydroxy-1-methyl-pyrrolidin-2-yl]methoxy]-7-(1-naphthyl)-6,8-dihydro-5H-pyrido[3,4-d]pyrimidin-4-yl]-1-prop-2-enoyl-piperazin-2-yl]acetonitrile]",0.1 to 1000 nM
6,"C=CC(=O)N1CCN(c2nc(OC[C@@H]3CCCN3C)nc3c2CCN(c2nccc4ccccc24)C3)CC1CC#N (stereo partly drawn) [Example 258, 2-[4-[7-(1-isoquinolyl)-2-[[(2S)-1-methylpyrrolidin-2-yl]methoxy]-6,8-dihydro-5H-pyrido[3,4-d]pyrimidin-4-yl]-1-prop-2-enoyl-piperazin-2-yl]acetonitrile]",> 1000 nM
7,"C=CC(=O)N1CCN(c2nc(OCCCCN(C)C)nc3c2CCN(c2cc(O)cc4ccccc24)C3)CC1 [Example 40, 1-(4-(2-(4-(dimethylamino)butoxy)-7-(3-hydroxynaphthalen-1-yl)-5,6,7,8-tetrahydropyrido[3,4-d]pyrimidin-4-yl)piperazin-1-yl)prop-2-en-1-one]",0.1 to 1000 nM
8,"C=CC(=O)N1CCN(c2nc(OC[C@H]3CCCN3CCO)nc3c2CCN(c2cccc4ccccc24)C3)CC1CC#N (stereo partly drawn) [Example 304, 2-[4-[2-[[(2R)-1-(2-hydroxyethyl)pyrrolidin-2-yl]methoxy]-7-(1-naphthyl)-6,8-dihydro-5H-pyrido[3,4-d]pyrimidin-4-yl]-1-prop-2-enoyl-piperazin-2-yl]acetonitrile]",0.1 to 1000 nM
9,"C=C(F)C(=O)N1CCN(c2nc(OC[C@@H]3CCCN3C)nc3c2CCN(c2cccc4ccccc24)C3)C[C@@H]1CC#N [Example 602, 2-[(2S)-1-(2-fluoroprop-2-enoyl)-4-[2-[[(2S)-1-methylpyrrolidin-2-yl]methoxy]-7-(1-naphthyl)-6,8-dihydro-5H-pyrido[3,4-d]pyrimidin-4-yl]piperazin-2-yl]acetonitrile]",0.1 to 1000 nM
10,"C=C(CO)C(=O)N1CCN(c2nc(OC[C@@H]3CCCN3C)nc3c2CCN(c2cccc(C)c2C)C3)C[C@@H]1CC#N [Example 488, 2-((S)-4-(7-(2,3-dimethylphenyl)-2-(((S)-1-methylpyrrolidin-2-yl)methoxy)-5,6,7,8-tetrahydropyrido[3,4-d]pyrimidin-4-yl)-1-(2-(hydroxymethyl)acryloyl)piperazin-2-yl)acetonitrile]",> 1000 nM

# Other lines, results leading:
row,IC50,SMILES
1,0.1 to 1000 nM,"C=CC(=O)N1CCN(c2nc(OCCN3CCC(C)CC3)nc3c2CCN(c2cc(O)cc4ccccc24)C3)CC1 [Example 92, 1-(4-(7-(3-hydroxynaphthalen-1-yl)-2-(2-(4-methylpiperidin-1-yl)ethoxy)-5,6,7,8-tetrahydropyrido[3,4-d]pyrimidin-4-yl)piperazin-1-yl)prop-2-en-1-one]"
2,0.1 to 1000 nM,"C=CC(=O)N1CCN(c2nc(OC[C@H]3CCCN3C)nc3c2CCN(c2cc(O)cc4ccccc24)C3)[C@@H](C)C1 [Example 203, 1-((S)-4-(7-(3-hydroxynaphthalen-1-yl)-2-(((R)-1-methylpyrrolidin-2-yl)methoxy)-5,6,7,8-tetrahydropyrido[3,4-d]pyrimidin-4-yl)-3-methylpiperazin-1-yl)prop-2-en-1-one]"
3,> 1000 nM,"C=CC(=O)N1CCN(c2ncnc3c2CCN(c2nc(N)cc4ccccc24)C3)CC1 [Example 54, 1-[4-[7-(3-amino-1-isoquinolyl)-6,8-dihydro-5H-pyrido[3,4-d]pyrimidin-4-yl]piperazin-1-yl]prop-2-en-1-one]"
4,> 1000 nM,"C=CC(=O)N1CCN(c2nc(OCCN(C)C)nc3c2CCN(c2cc(O)cc4ccccc24)C3)CC1 [Example 9, 1-(4-(2-(2-(dimethylamino)ethoxy)-7-(3-hydroxynaphthalen-1-yl)-5,6,7,8-tetrahydropyrido[3,4-d]pyrimidin-4-yl)piperazin-1-yl)prop-2-en-1-one]"
5,> 1000 nM,"C=CC(=O)N1CCN(c2nc(O[C@H](C)CN(C)C)nc3c2CCN(c2cc(OC(F)(F)F)ccc2O)C3)CC1 [Example 86, (R)-1-(4-(2-((1-(dimethylamino)propan-2-yl)oxy)-7-(2-hydroxy-5-(trifluoromethoxy)phenyl)-5,6,7,8-tetrahydropyrido[3,4-d]pyrimidin-4-yl)piperazin-1-yl)prop-2-en-1-one]"
6,> 1000 nM,"C=CC(=O)N1CCN(c2nc(OC[C@@H]3CCCN3C)nc3c2CCN(c2cccc(OC)c2F)C3)CC1CC#N (stereo partly drawn) [Example 307, 2-[4-[7-(2-fluoro-3-methoxy-phenyl)-2-[[(2S)-1-methylpyrrolidin-2-yl]methoxy]-6,8-dihydro-5H-pyrido[3,4-d]pyrimidin-4-yl]-1-prop-2-enoyl-piperazin-2-yl]acetonitrile]"
7,0.1 to 1000 nM,"C=CC(=O)N1CCN(c2nc(OC[C@@H]3CCCN3C)nc3c2CCN(c2cc(OC)cc4ccccc24)C3)C[C@@H]1CC#N [Example 314, 2-[(2S)-4-[7-(3-methoxy-1-naphthyl)-2-[[(2S)-1-methylpyrrolidin-2-yl]methoxy]-6,8-dihydro-5H-pyrido[3,4-d]pyrimidin-4-yl]-1-prop-2-enoyl-piperazin-2-yl]acetonitrile]"
8,0.1 to 1000 nM,"C=CC(=O)N1CCN(c2nc(O[C@H](C)CN(C)C)nc3c2CCN(c2cc(O)cc4ccccc24)C3)[C@@H](C)C1 [Example 115, 1-((S)-4-(2-(((R)-1-(dimethylamino)propan-2-yl)oxy)-7-(3-hydroxynaphthalen-1-yl)-5,6,7,8-tetrahydropyrido[3,4-d]pyrimidin-4-yl)-3-methylpiperazin-1-yl)prop-2-en-1-one]"
9,> 1000 nM,"C=CC(=O)N1CCN(c2nc(N3CCCC3)nc3c2CCN(c2cc(O)cc4ccccc24)C3)CC1 [Example 119, 1-(4-(7-(3-hydroxynaphthalen-1-yl)-2-(pyrrolidin-1-yl)-5,6,7,8-tetrahydropyrido[3,4-d]pyrimidin-4-yl)piperazin-1-yl)prop-2-en-1-one]"
10,0.1 to 1000 nM,"C=CC(=O)N1CCN(c2nc(OC[C@@H]3CCCN3C)nc3c2CCN(c2cnccc2C(F)(F)F)C3)CC1CC#N (stereo partly drawn) [Example 212, 2-(1-acryloyl-4-(2-(((S)-1-methylpyrrolidin-2-yl)methoxy)-7-(4-(trifluoromethyl)pyridin-3-yl)-5,6,7,8-tetrahydropyrido[3,4-d]pyrimidin-4-yl)piperazin-2-yl)acetonitrile]"
11,> 1000 nM,"C=CC(=O)N1CCN(c2nc(OCC3CCN(CC(=O)N(C)C)C3)nc3c2CCN(c2cc(O)cc4ccccc24)C3)CC1 (stereo not shown) [Example 140, 2-[3-[[7-(3-hydroxy-1-naphthyl)-4-(4-prop-2-enoylpiperazin-1-yl)-6,8-dihydro-5H-pyrido[3,4-d]pyrimidin-2-yl]oxymethyl]pyrrolidin-1-yl]-N,N-dimethyl-acetamide]"
12,0.1 to 1000 nM,"C=CC(=O)N1CCN(c2nc(OC[C@@H]3CCN(C)C3)nc3c2CCN(c2cc(O)cc4ccccc24)C3)CC1 [Example 110, (R)-1-(4-(7-(3-hydroxynaphthalen-1-yl)-2-((1-methylpyrrolidin-3-yl)methoxy)-5,6,7,8-tetrahydropyrido[3,4-d]pyrimidin-4-yl)piperazin-1-yl)prop-2-en-1-one]"
